Reference: US6319702A, “Nucleic acids encoding mutant human carboxypeptidase A enzymes” (Glaxo Wellcome, Inc., priority 1993, dated 2001)
Like-named read-outs stand apart in the source and are kept apart here.

Assay: Stability and biodistribution of prodrugs in vivo (HPLC of plasma and tissues)
Design: species or system mice (CD-1 nude; BALB/C where indicated)
Conditions: 50 mg/kg i.p. or i.v., CD-1 nude mice
[1] = mouse, cecum, 50 mg/kg, CECUM, 30 min, read-out: stability: percentage of material observed as intact prodrug, cecum
[2] = mouse, kidney, 50 mg/kg, KIDNEY, 30 min, read-out: stability: percentage of material observed as intact prodrug, kidney
[3] = mouse, large intestine, 50 mg/kg, LARGE INTESTINE, 30 min, read-out: stability: percentage of material observed as intact prodrug, large intestine
[4] = mouse, liver, 50 mg/kg, LIVER, 30 min, read-out: stability: percentage of material observed as intact prodrug, liver (converted)
[5] = mouse, plasma, 50 mg/kg, PLASMA, 30 min, read-out: concentration of prodrug in plasma
[6] = mouse, plasma, 50 mg/kg, PLASMA, 30 min, read-out: stability: percentage of material observed as intact prodrug, plasma
[7] = mouse, plasma, 50 mg/kg, PLASMA, 120 min, read-out: concentration of prodrug in plasma
[8] = mouse, plasma, 50 mg/kg, PLASMA, 120 min, read-out: stability: percentage of material observed as intact prodrug, plasma
[9] = mouse, small intestine, 50 mg/kg, SMALL INTESTINE, 30 min, read-out: stability: percentage of material observed as intact prodrug, small intestine
[10] = mouse, small intestine, 50 mg/kg, SMALL INTESTINE, 120 min, read-out: stability: percentage of material observed as intact prodrug, small intestine
[11] = mouse, tumor, 50 mg/kg, TUMOR, 30 min, read-out: stability: percentage of material observed as intact prodrug, tumor

| Structure (SMILES) | concentration of prodrug in cecum (CECUM, 30 min) | concentration of prodrug in kidney (KIDNEY, 30 min) | concentration of prodrug in large intestine (LARGE INTESTINE, 30 min) | concentration of prodrug in liver (LIVER, 30 min) | concentration of prodrug in small intestine (SMALL INTESTINE, 30 min) | concentration of prodrug in small intestine (SMALL INTESTINE, 120 min) | concentration of prodrug in tumor (TUMOR, 30 min) | remaining at 0.5 h [1] | remaining at 0.5 h [2] | remaining at 0.5 h [3] | remaining at 0.5 h [4] | concentration at 0.5 h [5] | remaining at 0.5 h [6] | concentration at 2 h [7] | remaining at 2 h [8] | remaining at 0.5 h [9] | remaining at 2 h [10] | remaining at 0.5 h [11] | other results |
| --- | --- | --- | --- | --- | --- | --- | --- | --- | --- | --- | --- | --- | --- | --- | --- | --- | --- | --- | --- |
| Cc1nc2ccc3ccc(CNc4ccc(C(=O)N[C@@H](CCC(=O)O)C(=O)N[C@@H](CCC(=O)O)C(=O)O)c(F)c4)cc3c2c(=O)[nH]1 [Prodrug 1, N-(N-(4(((1,2-dihydro-3-methyl-1-oxobenzo(F)quinazolin-9-yl)methyl)amino)-2-fluorobenzoyl)-L-glutam-1-yl)-L-glutamic acid] | 6.0 nmol/g | 175.8 nmol/g | 12.2 nmol/g | 770.3 nmol/g | 48.2 nmol/g | 55.6 nmol/g | 6.0 nmol/g | 96% | 98% | 93% | 98% | 41.5 µM | 99% | 4.2 µM | 100% | 83% | 68% | 96% | concentration of prodrug in cecum (CECUM, 120 min): 1.2 nmol/g; concentration of prodrug in kidney (KIDNEY, 120 min): 70.3 nmol/g; concentration of prodrug in large intestine (LARGE INTESTINE, 120 min): 1.0 nmol/g; concentration of prodrug in liver (LIVER, 120 min): 579.8 nmol/g; concentration of prodrug in spleen (SPLEEN, 30 min): 23.4 nmol/g; concentration of prodrug in spleen (SPLEEN, 120 min): 1.8 nmol/g; concentration of prodrug in tumor (TUMOR, 120 min): 1.2 nmol/g; remaining at 2 h (mouse, cecum, 50 mg/kg, CECUM, 120 min, read-out: stability: percentage of material observed as intact prodrug, cecum): 76%; remaining at 2 h (mouse, kidney, 50 mg/kg, KIDNEY, 120 min, read-out: stability: percentage of material observed as intact prodrug, kidney): 97%; remaining at 2 h (mouse, large intestine, 50 mg/kg, LARGE INTESTINE, 120 min, read-out: stability: percentage of material observed as intact prodrug, large intestine): 100%; remaining at 2 h (mouse, liver, 50 mg/kg, LIVER, 120 min, read-out: stability: percentage of material observed as intact prodrug, liver): 97%; remaining at 0.5 h (mouse, spleen, 50 mg/kg, SPLEEN, 30 min, read-out: stability: percentage of material observed as intact prodrug, spleen): 100%; remaining at 2 h (mouse, spleen, 50 mg/kg, SPLEEN, 120 min, read-out: stability: percentage of material observed as intact prodrug, spleen): 100%; remaining at 2 h (mouse, tumor, 50 mg/kg, TUMOR, 120 min, read-out: stability: percentage of material observed as intact prodrug, tumor): 76% |
| Cc1nc2ccc3ccc(CNc4ccc5c(c4)CN([C@@H](CCC(=O)O)C(=O)N[C@@H](Cc4ccccc4)C(=O)O)C5=O)cc3c2c(=O)[nH]1 [Prodrug 2, N-((S)-4-carboxy-2-(5-(((1,2-dihydro-3-methyl-1-oxoxbenzo(F)quinazolin-9-yl)methyl)amino)-1-oxo-2-isoindolinyl)butanoyl)-L-phenylalanine] | 2.7 nmol/g | 9.0 nmol/g | 5.9 nmol/g | 42.0 nmol/g | 170.2 nmol/g | 17.6 nmol/g | 2.7 nmol/g | 96% | 96% | 93% | 96% | 33 µM | 100% | 0.3 µM | 93% | 91% | 47% | 98% | concentration of prodrug in kidney (KIDNEY, 90 min): 1.3 nmol/g; concentration of prodrug in kidney (KIDNEY, 180 min): 0.2 nmol/g; concentration of prodrug in large intestine (LARGE INTESTINE, 90 min): 0.7 nmol/g; concentration of prodrug in large intestine (LARGE INTESTINE, 180 min): 1.3 nmol/g; concentration of prodrug in liver (LIVER, 90 min): 9.1 nmol/g; concentration of prodrug in liver (LIVER, 180 min): 0.8 nmol/g; concentration (PLASMA, 30 min, 50 mg/kg, 30 min, read-out: concentration of prodrug in plasma): 22.1 µM; remaining at 1.5 h (mouse, kidney, 50 mg/kg, KIDNEY, 90 min, read-out: stability: percentage of material observed as intact prodrug, kidney): 98%; remaining at 3 h (mouse, kidney, 50 mg/kg, KIDNEY, 180 min, read-out: stability: percentage of material observed as intact prodrug, kidney): 100%; remaining at 1.5 h (mouse, large intestine, 50 mg/kg, LARGE INTESTINE, 90 min, read-out: stability: percentage of material observed as intact prodrug, large intestine): 60%; remaining at 3 h (mouse, large intestine, 50 mg/kg, LARGE INTESTINE, 180 min, read-out: stability: percentage of material observed as intact prodrug, large intestine): 52%; remaining at 1.5 h (mouse, liver, 50 mg/kg, LIVER, 90 min, read-out: stability: percentage of material observed as intact prodrug, liver): 100%; remaining at 3 h (mouse, liver, 50 mg/kg, LIVER, 180 min, read-out: stability: percentage of material observed as intact prodrug, liver): 100%; concentration at 1.5 h (mouse, plasma, 50 mg/kg, PLASMA, 90 min, read-out: concentration of prodrug in plasma): 5.5 µM; remaining at 1.5 h (mouse, plasma, 50 mg/kg, PLASMA, 90 min, read-out: stability: percentage of material observed as intact prodrug, plasma): 98%; concentration at 3 h (mouse, plasma, 50 mg/kg, PLASMA, 180 min, read-out: concentration of prodrug in plasma): 3.5 µM; remaining at 3 h (mouse, plasma, 50 mg/kg, PLASMA, 180 min, read-out: stability: percentage of material observed as intact prodrug, plasma): 97% |
